Laboratory results: US20250161290A1, “CO-CRYSTALS” (CereSpir Incorporated, priority 2021, published 2025)
≈ marks a conversion by molar mass, not a printed value.

Assays:
[1] = Consolidated qualitative solubility results (Tables 6 and 8); settings: for qualitative solvent solubility overlaid with cocrystallization screens' results: Table 8, numbers are molar concentrations pending investigation; for consolidated solubility result: Table 6
[2] = Coformer and CSP-1103 aqueous solubility assessment (qualitative); format: physicochemical; settings: water, thermodynamic from solid, 0.05 M aqueous concentration, gentle heating at 45° C. for 1 minute
Experimental: In a 1-dram vial, enough solvent was added to achieve a 0.05 M aqueous concentration along with some gentle heating at 45° C. for 1 minute to determine if the material would completely dissolve. After 24 hours, observations were made to determine if the material had remained in solution.

[3] = Coformer solubility assessment in organic solvents (qualitative); format: physicochemical; settings: gentle heating 45° C. if required; for solubility: organic solvent or mixture, thermodynamic from solid
Experimental: Coformer solubility assessment was then performed. The following solvents were selected under these solvent classifications, which represent typical manufacturing solvents and have good solvent-solvent miscibility: • 1. Aprotic Polar: acetone, ethyl acetate, acetonitrile; • 2. Hydrogen Bond Donor: ethanol, methanol; and • 3. Electron Pair Donor: MTBE instead of diethyl ether.
Approximately 0.1 mmol of the coformer was weighed out into a 1-dram vial, enough solvent was added to achieve a 0.2 M concentration, and if required, gentle heating was applied at 45° C. for about 1 minute. […] After 65 hours, observations were made to determine if the coformers had remained in solution.

[4] = Dynamic Vapor Sorption (DVS) water sorption/desorption; format: physicochemical
Experimental: (§1) Samples are analyzed using a TA Instruments Q5000SA gravimetric water sorption analyzer. The relative humidity (RH) is adjusted in 10% RH increments between 5-95% (±1% RH) at 25° C. (±0.5%° C.). The mass of a sample is continuously monitored and recorded with respect to RH and time with criteria for mass equilibrium set as a percent mass change <0.0100 for 5 minutes with a time limit of 720 minutes per step. The humidity is controlled by mixing dry and wet nitrogen streams with a total flow rate of 200 mL/min. The instrument control and data analysis are operated under Advantage for Q Series and Universal Analysis software, respectively.

[5] = XRPD of pre-exposed and post-exposed DVS samples (solid form stability); format: physicochemical; settings: two DVS sorption/desorption cycles, 5-95% RH, 25° C.
Experimental: X-ray powder diffraction analyses are obtained using a BRUKER D8 ADVANCE equipped with a Cu radiation source operated at 40 kV and 40 mA (λ=1.54 Å after Ni filtering) configured in a Bragg-Brentano geometry, equipped with a 90-position AUTO-CHANGER and a silicon strip detector (SSD160-2). A coupled theta-two theta continuous PSD (Position Sensitive Device) fast scan from 4 to 40 degrees are collected over approximately 32 minutes (0.5 sec/0.01° step). A sample is placed onto a polished zero-background silicon wafer by gently distributing onto the flat surface and is analyzed as a flat plate specimen.
as §1

[6] = MTBE, organic solvent or mixture
[7] = acetonitrile, organic solvent or mixture
[8] = ethanol, organic solvent or mixture
[9] = ethyl acetate, organic solvent or mixture

| qualitative solvent solubility overlaid with cocrystallization screens' results ([1]; water (BP 100° C.)) | consolidated solubility result ([1]; water) | solubility (physchem; [6]) | solubility (physchem; [7]) | solubility (physchem; [8]) | solubility (physchem; [9]) | solubility [2] | qualitative solvent solubility overlaid with cocrystallization screens' results ([1]; acetone (BP 56° C.)) | consolidated solubility result ([1]; acetone) | qualitative solvent solubility overlaid with cocrystallization screens' results ([1]; acetonitrile (BP 82° C.)) | consolidated solubility result ([1]; acetonitrile) | consolidated solubility result ([1]; ethanol) | consolidated solubility result ([1]; ethyl acetate) | qualitative solvent solubility overlaid with cocrystallization screens' results ([1]; methanol (BP 65° C.)) | consolidated solubility result ([1]; methanol) | solubility ([3]; acetone) | solubility ([3]; acetonitrile) | solubility ([3]; ethanol) | solubility ([3]; ethyl acetate) | solubility ([3]; methanol) | SMILES | other results |
| --- | --- | --- | --- | --- | --- | --- | --- | --- | --- | --- | --- | --- | --- | --- | --- | --- | --- | --- | --- | --- | --- |
| ✓ | ✓ | < 50 mM | < 50 mM | < 50 mM | < 50 mM | > 50 mM | – | – | – | – | – | – | – | – | – | – | – | – | – | N[C@@H](Cc1ccccc1)C(=O)O [phenylalanine] | solubility (physchem; acetone, organic solvent or mixture): < 50 mM; solubility (physchem; methanol, organic solvent or mixture): < 50 mM |
| – | – | – | – | 100 mM (≈ 18.3 mg/mL) | 200 mM (≈ 36.6 mg/mL) | < 50 mM | ✓ | ✓ | ✓ | ✓ | ✓ | ✓ | ✓ | ✓ | > 200 mM | > 200 mM | > 100 mM | > 200 mM | > 200 mM | O=C1NS(=O)(=O)c2ccccc21 [saccharin] | qualitative solvent solubility overlaid with cocrystallization screens' results ([1]; MTBE (BP 55° C.)): ✓; consolidated solubility result ([1]; MTBE): ✓; solubility (physchem; water): < 50 mM; qualitative solubility at 0.05 M ([3]; MTBE): Y✓ |
| ✓ | ✓ | < 50 mM | – | – | 50 mM (≈ 6.11 mg/mL) | > 50 mM | – | ✓ | ✓ | ✓ | ✓ | ✓ | ✓ | ✓ | > 200 mM | > 100 mM | > 200 mM | > 50 mM | > 200 mM | NC(=O)c1cccnc1 [nicotinamide] | Mass Change, Adsorption ([4]; DVS cycle 1 of 2, RH 5 to 95%): 1.11%; Mass Change, Desorption ([4]; DVS cycle 1 of 2, RH 95 to 5%): −1.11%; Mass Change, Adsorption ([4]; DVS cycle 2 of 2, RH 5 to 95%): 1.18%; Mass Change, Desorption ([4]; DVS cycle 2 of 2, RH 95 to 5%): −1.18%; solid form change after DVS exposure (XRPD pre- vs post-exposed) [5]: no solid state form changes |
| ✓ | ✓ | – | – | – | 200 mM (≈ 30.4 mg/mL) | > 50 mM | ✓ | ✓ | ✓ | ✓ | ✓ | ✓ | ✓ | ✓ | > 200 mM | > 200 mM | > 200 mM | > 200 mM | > 200 mM | COc1cc(C=O)ccc1O [vanillin] | qualitative solvent solubility overlaid with cocrystallization screens' results ([1]; MTBE (BP 55° C.)): ✓; consolidated solubility result ([1]; MTBE): ✓; qualitative solvent solubility overlaid with cocrystallization screens' results ([1]; ethanol (BP 79° C.)): ✓; solubility ([3]; MTBE): > 200 mM |
| – | – | < 50 mM | < 50 mM | – | < 50 mM | < 50 mM | ✓ | ✓ | – | – | ✓ | – | ✓ | ✓ | > 100 mM | – | > 200 mM | – | > 200 mM | O=C(O)/C=C/c1ccc(O)c(O)c1 [caffeic acid] | qualitative solvent solubility overlaid with cocrystallization screens' results ([1]; ethanol (BP 79° C.)): ✓; solubility (physchem; water): < 50 mM; solubility ([3]; MTBE): < 50 mM |
